# Source: patent publication EP3184516A1, “CRYSTALLINE INCLUSION COMPLEXES OF MIRABEGRON WITH BETA-CYCLODEXTRIN” (Enantia, S.L., priority 2015, dated 2017)
# Where a name gives a salt, the structure may show the parent alone. Read-outs that look alike come from different tables or passages of the source.
# Legend:
# [1] = Kalariya et al., RSC Adv. 2015; cited from earlier work
# [2] = cited from earlier work
# [3] = Solubility tests performed by the present inventors; format: physicochemical
# From the text: Two different crystal forms of Mirabegron free base, named as α-form and β-form, were also disclosed in EP1440969A1.
# [4] = Water solubility study at room temperature by HPLC analysis of saturated water solutions; format: physicochemical
# Description: A water solubility study at room temperature was performed comparing Mirabegron Form α and crystalline inclusion complexes of Mirabegron with β-cyclodextrin Forms I and II by HPLC analysis of saturated water solutions.
# A slurring of Mirabegron Form α was performed under the same conditions.
# A slurring of Mirabegron Form α (20 mg) was performed in the same conditions.
# [5] = according to EP1440969A1, cited from earlier work
structure (smiles),measurement,setting,value
"Nc1nc(CC(=O)Nc2ccc(CCNC[C@H](O)c3ccccc3)cc2)cs1 [Mirabegron, 2-(2-amino-1,3-thiazol-4-yl)-N-[4-(2-{[(2R)-2-hydroxy-2-phenylethyl]amino}ethyl)phenyl]acetamide]",degradation under hydrolytic and oxidative stress conditions,[1],degrades
same,stability under thermal and photolytic conditions,[1],stable
same,solubility in water,"[2]; free base, AusPar / FDA prescribing information",82 µg/mL
same,solubility in water at room temperature,[3],less than 50 volumes
"Nc1nc(CC(=O)Nc2ccc(CCNC[C@H](O)c3ccccc3)cc2)cs1 [Mirabegron Form α, 2-(2-amino-1,3-thiazol-4-yl)-N-[4-(2-{[(2R)-2-hydroxy-2-phenylethyl]amino}ethyl)phenyl]acetamide]",HPLC peak area corresponding to Mirabegron,"[4]; 20 mg stirred in 0.8 ml of water for 19h, mother liquor (Form I experiment)",1728 counts
same,HPLC peak area corresponding to Mirabegron,"[4]; 24 mg (Form α 20 mg) stirred in 1 ml of water for 19h, mother liquor (Form II experiment)",1570 counts
same,solubility in water (in words),[2]; according to EP1440969A1,practically insoluble
same,hygroscopicity,[5]; listed as α-form,non-hygroscopic
same,stability of crystal form,[5]; listed as α-form,stable
Nc1nc(CC(=O)Nc2ccc(CCNC[C@H](O)c3ccccc3)cc2)cs1 [dihydrochloride salt],hygroscopicity,[5],strongly hygroscopic
same,stability of crystal form,[5],unstable
"Nc1nc(CC(=O)Nc2ccc(CCNC[C@H](O)c3ccccc3)cc2)cs1 [β-form, 2-(2-amino-1,3-thiazol-4-yl)-N-[4-(2-{[(2R)-2-hydroxy-2-phenylethyl]amino}ethyl)phenyl]acetamide]",hygroscopicity,[5],low hygroscopicity
same,stability of crystal form,[5],metastable
